Data from patent US11103478B2, “Anavex2-73 for the treatment of alzheimer's disease” (ANAVEX LIFE SCIENCES CORP., priority 2017, dated 2021).

Experiments:
[1] = Randomized, placebo-controlled single ascending dose Phase 1 study in healthy male volunteers; assay type: in vivo, human
Experimental: See Poster: A Phase 1 Dose Escalation Study to Investigate Safety, Tolerability, and Pharmacokinetics of ANAVEX2-73 in Healthy Male Subjects, CNS Summit 2014, Boca Raton, Fla., by Ole Voges, Ingo Weigmann, Norman Bitterlich, Christoph Schindler and Christopher Missling. […] Based on the frequency and intensity of […] adverse events (TEAEs) the maximum tolerable dose (MTD) and the minimum intolerable dose (MID) were defined as 55 mg and 60 mg, respectively.

[2] = test system: mild-to-moderate Alzheimer's disease patients; test: Phase 2a trial: auditory P300 event related potential (three-stimulus oddball paradigm); assay type: in vivo, human
Experimental: (§1) The 36-day multicenter randomized clinical trial included both male and female mild-to-moderate Alzheimer's disease patients. ANAVEX2-73 was administered to twelve subjects as an add-on therapy to the donepezil current standard of care. ANAVEX2-73 was administered according to a two-period on-off-on cross-over dosing regimen in which the subjects were administered ANAVEX2-73 for 12 days (1st period) followed by a 12-day wash-out period before being administered ANAVEX2-73 for a second 12-day period (2nd period). Those subjects that were administered ANAVEX2-73 by oral administration during the 1st period were administered ANAVEX2-73 intravenously during the 2nd period, and vice versa. About half of the subjects were administered a 30 mg oral dosage form while the other half of subjects were administered a 50 mg oral dosage form. The intravenous dosage was either 3 mg or 5 mg, with about half of the subjects administered 3 mg and the other half administered 5 mg.
Resting electroencephalographic (EEG) activity and event related potentials (EEG/ERP) were used to assess the cognitive effects of ANAVEX2-73 administration. Event related potentials (ERPs) are voltage changes time-locked to some physical or mental occurrence in ongoing electrical brain activity, as recorded by EEG. Event-related potentials (ERPs) provide a sensitive and reliable measure of the cognitive effects associated with early Alzheimer's disease. […] See for example, New Encycl. Neurosci., Oxford Academic Press, p. 13-18 (2009). For example, ERP tests on young presymptomatic individuals who carry mutations in the presenilin-1 and amyloid precursor protein genes show significant changes in ERP patterns years before the onset of behavioral symptoms and the development of Alzheimer's disease. See for example, Neurology 73, 1649-1655 (2009); Neurology 77, 469-475 (2011). […] For instance, ERP markers of cognitive function are increasingly altered in longitudinal studies on individuals with mild cognitive impairment (MCI) and Alzheimer's disease patients. See for example, Clin. Neurophysiol. 122, 1322-1326 (2011); Clin. Neurophysiol. 121, 194-199 (2010). […] See for example, Neurol. Neurochir. Pol. 35 Suppl 3, 37-43 (2001); Clin. Neuropharmacol. 25, 207-215 (2002); Neurosci. Biomed. Eng. 1, 34-39 (2013).
In particular, the auditory P300 component of the ERP has been widely applied in the study of age-related cognitive dysfunction because it is thought to reflect attentional and memory processes. Auditory P300 is a positive deflection occurring at about 300 ms from stimulus onset. It is generated by the activation of multiple neocortical and limbic regions. […]

[3] = test system: mild-to-moderate Alzheimer's disease patients; test: Phase 2a trial: EEG peak alpha frequency (PAF); assay type: in vivo, human; conditions: 12 patients, day 36
Experimental: as §1, with “About half of the subjects were administered a 30 mg oral dosage form while the other half of subjects were administered a 50 mg oral dosage form. The intravenous dosage was either 3 mg or 5 mg, with about half of the subjects administered 3 mg and the other half administered 5 mg.” left out
Subjects were tested using a three-stimulus oddball paradigm. […] Electroencephalographic (EEG) activity was recorded from seven electrode sites (Fz, Cz, Pz, F3, P3, F4, and P4) of the international 10-20 system using a COGNISION™ Headset (Neuronetrix). […]
FIG. 8 illustrates electroencephalographic (EEG) peak alpha frequency (PAF) data for twelve patients at baseline and day 36 following the on-off-on ANAVEX2-73 dosing regimen, as compared to a healthy control group. Electroencephalographic (EEG) peak alpha frequency (PAF), measured in Hz, is a distinctive individual “fingerprint” that has been correlated to cognitive performance and reflects a trait or state of cognitive preparedness. […]

[4] = test system: mild-to-moderate Alzheimer's disease patients; test: Phase 2a trial: MMSE and Cogstate scales, safety profile; assay type: in vivo, human
Experimental: as §1
The results for the twelve subject on-off-on dosing regimen of ANAVEX2-73, shown in FIGS. 5-9, were achieved without any dose optimization. […] An additional 20 subjects will be studied during the remainder of the Phase 2a clinical trial. Phase 2b clinical trials, involving an additional 26-week extension of daily oral dosage administration of ANAVEX2-73 is on-going.

[5] = test system: patients with early signs of Alzheimer's disease; test: Single-patient examples of intermittent dosing in early Alzheimer's disease (Examples 1-5); assay type: in vivo, human
From the text: The following examples show uses of ANAVEX2-73 in the treatment of patients with Alzheimer's disease or presenting with the early signs of Alzheimer's disease. The clinical determination that a patient may have Alzheimer's disease or is presenting with early signs of Alzheimer's disease is well known in the art. By way of example, the following references (and all publications cited herein) are incorporated by reference herein in their entireties: Dementia: From Diagnosis to Management—A Functional Approach 1st Edition, Psychology Press (Feb. 17, 2009); Clinician's Guide to Psychological Assessment and Testing: With Forms and Templates for Effective Practice 1st Edition, Springer Publishing Company (Sep. 18, 2012); Neurodegener. Dis. Manag. 5(3), 191-201 (2015); Artif. Intell. Med. 64(1), 59-74 (2015); Clin. Chem. 60(12), 1585-1586 (2014); and Metabolism 64(3 Suppl 1), S47-50 (2014).
(§2) A person presents with early signs of Alzheimer's disease. They are orally administered a pharmaceutical composition containing 30 mg ANAVEX2-73 according to an intermittent dosing regimen where each cycle includes daily administration for 10 days (dosing period) followed by 10 days of no administration (resting period). The patient is administered 30 mg ANAVEX2-73 according to the intermittent dosing regimen for 6 months. Their loss of cognitive function stabilizes during that period.
(§3) A person presents with signs of early onset Alzheimer's disease. They are orally administered a pharmaceutical composition containing 50 mg ANAVEX2-73 according to an intermittent dosing regimen where each cycle includes daily administration for 10 days (dosing period) followed by 20 days of no administration (resting period). Their loss of cognitive function stabilizes during that period.
as §3, with “are” for “are orally”, “3” for “a pharmaceutical composition containing 50”, “mg of” for “mg”, “ANAVEX2-73 intravenously” for “ANAVEX2-73”, “5” for “10”, “period) for one year.” for “period).”
A person presents with signs of early onset Alzheimer's disease. They are administered 5 mg of ANAVEX2-73 intravenously according to an intermittent dosing regimen where each cycle includes daily administration for 14 days (dosing period) followed by 7 days of no administration (resting period) for one year. Their loss of cognitive function stabilizes during that period.
as §2, with “containing 50” for “containing 30”, “for 14” for “for 10”, “by 7” for “by 10”, “administered 50” for “administered 30”, “function is stabilized” for “function stabilizes”

sigma-1 receptor = sigma-1 receptor (Homo sapiens, UniProt Q99720); conditions: believed to bind; cited from earlier work
sigma-1 receptor, sequence (Q99720 whole entry, species assumed): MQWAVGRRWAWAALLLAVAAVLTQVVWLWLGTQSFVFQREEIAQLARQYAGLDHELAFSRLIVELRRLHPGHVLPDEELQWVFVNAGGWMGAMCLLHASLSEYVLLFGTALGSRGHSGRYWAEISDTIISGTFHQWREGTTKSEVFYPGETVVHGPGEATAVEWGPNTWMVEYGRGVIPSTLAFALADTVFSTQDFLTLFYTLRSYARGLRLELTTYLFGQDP

[6] = test system: muscarinic acetylcholine receptors; conditions: believed to bind; cited from earlier work
[7] = test system: amyloid β25-35 peptide (Aβ25-35) toxicity; conditions: cited from earlier work

## CN(C)CC1CCOC1(c1ccccc1)c1ccccc1.Cl (stereo not shown) [ANAVEX2-73, tetrahydro-N,N-dimethyl-2,2-diphenyl-3-furanmethanamine hydrochloride]
[1]; human, in vivo
  observed adverse events: moderate and reversible dizziness and headache
[1]; human, in vivo, po
  QT interval and QTcB: did not reveal any clinically significant changes
  blood pressure, resting heart rate, vital signs and 12-lead ECG: did not show any clinically relevant or dose-dependent changes
  pharmacokinetics: suitable for daily oral dosing
  serious adverse events: No serious adverse events occurred
[1]; male, human, in vivo, po
  minimum intolerable dose (MID): 60 mg
[1]; single oral dose, healthy male volunteers
  maximum tolerable dose (MTD): 55 mg
[2]; 12 patients, day 36, on-off-on regimen (30/50 mg oral, 3/5 mg i.v.), add-on to donepezil
  P300 ERP wave: measured cognitive performance vs baseline: improved measured cognitive performance
[2]; 12 patients, day 36 vs baseline, hydrochloride
  P300 amplitude, Percentage Increase Over Baseline Data: 38%
[2]; day 36 (1 month), change from baseline, donepezil data from the literature
  P300 amplitude change vs historical donepezil at the 1 month time point: about four times higher
[2]; day 36 (1 month), donepezil data from the literature
  percent P300 amplitude change after 1 month vs historical donepezil after 6 months: greater
[3]
  EEG peak alpha frequency (PAF) vs baseline: higher
[4]; Phase 2a trial
  safety profile during Phase 2a: consistent with the Phase 1 data
[4]; preliminary, 12 patients
  Mini Mental State Examination (MMSE) and Cogstate scale changes: consistent with the observed trend of the cognitive EEG/ERP effect
[5]; Example 1: person, 30 mg oral, 10 days on / 10 days off, 6 months
  loss of cognitive function: stabilizes
[5]; Example 2: person, 50 mg oral, 10 days on / 20 days off
  loss of cognitive function: stabilizes
[5]; Example 3: person, 3 mg intravenously, 5 days on / 20 days off, one year
  loss of cognitive function: stabilizes
[5]; Example 4: person, 5 mg intravenously, 14 days on / 7 days off, one year
  loss of cognitive function: stabilizes
[5]; Example 5: person, 50 mg oral, 14 days on / 7 days off, 6 months
  loss of cognitive function: is stabilized
sigma-1 receptor
  affinity for sigma-1 receptor: low micromolar range
[6]
  affinity for muscarinic acetylcholine receptors: low micromolar range
[7]; in the dose-range tested
  hyperphosphorylation of Tau on physiological (AT-8) and pathological (AT-100) epitopes: attenuated
[7]; mice one week after i.c.v. injection of oligomeric Aβ25-35
  oxidative stress, caspases induction, cellular loss and learning and memory deficits: attenuating
[7]; mice, Aβ25-35
  Aβ25-35-induced P-Akt decrease and P-GSK-3β increase: blocked
[7]; mouse, in vivo
  Aβ25-35-induced endogenous Aβ1-42 seeding: decrease
